We go through one compound from patent publication US7863326B2, “Pharmaceutical compositions comprising ascorbic acid for the treatment of fungal superinfections and fungal recurrences” (Polichem S.A., priority 2003, dated 2011).

The test system of test [1] is experimental renal candidiasis. Conditions: rats, orally supplemented to the diet; evident at very low dose, disappearing at a higher dose level; cited from earlier work.
In test [2] the test system is Candida. As to the kind of experiment: Randomized double-blind placebo-controlled study of preventing Candida superinfection after standard metronidazole treatment. It counts as in vivo, patients. How it is done: Two hundred patients with a negative microbiology of their vaginal specimen after a standard metronidazole treatment have been included in a controlled study aimed at the evaluation of ascorbic acid capability to prevent Candida superinfection in those patients. The study was randomized, double blind, parallel groups versus placebo. As active treatment, a 6-day course of vaginal tablets, containing 250 mg silicon-coated ascorbic acid as per the Example 2, was given once monthly for 3 months starting after menses. Placebo was undistinguishable from active treatment. Ninety-five patients in the active group and 92 respectively in the placebo group terminated the study and were included in the efficacy analysis. […] The protection factor of ascorbic acid against Candida superinfection in this experiment was 40%.

Test [3] deals with Candida. The test is described as follows: Double-blind placebo-controlled study of preventing Candida reinfection after miconazole in women with recurrent vaginal candidiasis. It counts as in vivo. An excerpt: Forty women with an exacerbation of recurrent vaginal candidiasis underwent a follow up preventative therapy with ascorbic acid. Most important inclusion criteria were: adult women in fertile age (18-50); ≧3 episodes of acute vaginal candidiasis in the last 12 months; acute vaginal candidiasis in the last 14 days; eradication of Candida (fresh examination) after an appropriate miconazole treatment. Exclusion criteria were: severe vaginal infections; HIV positivity; diabetes; pregnant women. The design was double blind, parallel groups versus placebo.
After completion of the standard treatment with miconazole, all the responders (patients with eradication of Candida at the end of treatment) were randomized to a standardized preventative vaginal application of ascorbic acid (in form of gel, containing 7.1% ascorbic acid as the only active ingredient, same composition as per the Example 1) or to an undistinguishable placebo. The product was applied once daily in the evening, before going to bed, for 6 consecutive days. The 6-day cycle was repeated monthly for 6 consecutive months, starting on the first month immediately after patient randomization; during the following 5 months, the therapeutic cycle with ascorbic acid was started on the day after termination of cyclic menses. Primary endpoint of the study was the occurrence of episodes of Candida reinfection, confirmed by fresh examination of the vaginal smear. In case of reinfection, this was treated with a further standard miconazole treatment and the follow up with ascorbic acid was continued immediately after confirmation of microbiological eradication. All patients in the ascorbic acid group terminated the study, 2 patients of placebo group were lost to follow up. […] The protection factor of ascorbic acid against Candida reinfection was 46% in this investigation.

Consider `O=C1O[C@H]([C@@H](O)CO)C(O)=C1O` [ascorbic acid, L-ascorbic acid], for which, in test [1], the “effect on the resistance to experimental renal candidiasis” value was “inconclusive”. Further, the “patients with Candida superinfection (percent of group)” value with Candida [2] (vaginal tablets with 250 mg silicon-coated ascorbic acid, 6-day course once monthly for 3 months) was 9%. Also, in the test with Candida [2] (vaginal tablets with 250 mg silicon-coated ascorbic acid, 6-day course once monthly for 3 months, 95 patients analysed), the “patients with Candida superinfection” value came to 9 patients. In addition, the “protection factor against Candida superinfection” value in the test on Candida [2] (versus placebo, 3 months) is given as 40%. The episodes of reinfection in the test on Candida [3] (7.1% ascorbic acid vaginal gel once daily for 6 days, cycle repeated monthly for 6 months, reinfection confirmed by fresh examination of vaginal smear) worked out at 15 episodes. Also, the “acute infection:patient rate” value with Candida [3] (7.1% ascorbic acid vaginal gel, 6-day cycles monthly for 6 months) was 0.75 /6 months. In the test on Candida [3] (versus placebo, 6 months), the “protection factor against Candida reinfection” value is reported as 46%.
